# In PubChem BioAssay AID1963986 (Molecular Pharmacology Branch, DTP, NCI, 2024):
# Tested on: 171881-019-R-J1-PDC tumor spheroid viability
# Test: Anticancer human tumor 171881-019-R-J1-PDC patient-derived invasive breast carcinoma cell line growth inhibition [PI3K]
# Conditions: spheroids with HUVEC and MSC; for IC50: curve of first compound; for viability, T/C: stronger effect = lower value
# Method in brief: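 Multi-cell spheroids combine tumor cells with HUVEC and human MSCs, treated with targeted agents alone or with inavolisib, alpelisib, duvelisib or copanlisib. Concentrations fall in half-log steps from at or near clinical Cmax, or from 10 microM where Cmax is unknown; viability read-out.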
# [1] = second compound 0.00316 µM, first compound 0.00316 µM
# [2] = second compound 0.00316 µM, first compound 0.01 µM
# [3] = second compound 0.00316 µM, first compound 0.0316 µM
# [4] = second compound 0.00316 µM, first compound 0.1 µM
# [5] = second compound 0.01 µM, first compound 0.00316 µM
# [6] = second compound 0.01 µM, first compound 0.01 µM
# [7] = second compound 0.01 µM, first compound 0.0316 µM
# [8] = second compound 0.01 µM, first compound 0.1 µM
# [9] = second compound 0.0316 µM, first compound 0.00316 µM
# [10] = second compound 0.0316 µM, first compound 0.01 µM
# [11] = second compound 0.0316 µM, first compound 0.0316 µM
# [12] = second compound 0.0316 µM, first compound 0.1 µM
# [13] = second compound 0.1 µM, first compound 0.00316 µM
# [14] = second compound 0.1 µM, first compound 0.01 µM
# [15] = second compound 0.1 µM, first compound 0.0316 µM
# [16] = second compound 0.1 µM, first compound 0.1 µM
# [17] = second compound 0.316 µM, first compound 0.00316 µM
# [18] = second compound 0.316 µM, first compound 0.01 µM
# [19] = second compound 0.316 µM, first compound 0.0316 µM
# [20] = second compound 0.316 µM, first compound 0.1 µM
# [21] = second compound 1 µM, first compound 0.00316 µM
# [22] = second compound 1 µM, first compound 0.01 µM
# [23] = second compound 1 µM, first compound 0.0316 µM
# [24] = second compound 1 µM, first compound 0.1 µM
# 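Note: spheroids exposed to compound for 7 days before viability read.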
# 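Throughout, for viability, T/C: 100% = DMSO vehicle-treated spheroids.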
structure (smiles),measurement,setting,value
CC(=O)c1c(C)c2cnc(Nc3ccc(N4CCNCC4)cn3)nc2n(C2CCCC2)c1=O + COc1c(OCCCN2CCOCC2)ccc2c3n(c(=NC(=O)c4cnc(N)nc4)nc12)CCN3,IC50,second compound 0.00316 µM,> 100 nM
same,IC50,second compound 0.01 µM,< 0.316 nM
same,IC50,second compound 0.0316 µM,< 0.316 nM
same,IC50,second compound 0.1 µM,< 0.316 nM
same,IC50,second compound 0.316 µM,< 0.316 nM
same,IC50,second compound 1 µM,< 0.316 nM
same,"viability, T/C","second compound 0.00316 µM, first compound 0.000316 µM",64.3%
same,"viability, T/C","second compound 0.00316 µM, first compound 0.001 µM",63.9%
same,"viability, T/C",[1],65.5%
same,"viability, T/C",[2],73%
same,"viability, T/C",[3],65%
same,"viability, T/C",[4],70.4%
same,"viability, T/C","second compound 0.01 µM, first compound 0.000316 µM",48.1%
same,"viability, T/C","second compound 0.01 µM, first compound 0.001 µM",53.9%
same,"viability, T/C",[5],52.2%
same,"viability, T/C",[6],55.1%
same,"viability, T/C",[7],57.9%
same,"viability, T/C",[8],58.5%
same,"viability, T/C","second compound 0.0316 µM, first compound 0.000316 µM",20.7%
same,"viability, T/C","second compound 0.0316 µM, first compound 0.001 µM",25%
same,"viability, T/C",[9],26.8%
same,"viability, T/C",[10],27%
same,"viability, T/C",[11],28.5%
same,"viability, T/C",[12],27.9%
same,"viability, T/C","second compound 0.1 µM, first compound 0.000316 µM",6.71%
same,"viability, T/C","second compound 0.1 µM, first compound 0.001 µM",6.39%
same,"viability, T/C",[13],8.12%
same,"viability, T/C",[14],7.28%
same,"viability, T/C",[15],8.51%
same,"viability, T/C",[16],7.44%
same,"viability, T/C","second compound 0.316 µM, first compound 0.000316 µM",1.58%
same,"viability, T/C","second compound 0.316 µM, first compound 0.001 µM",2.19%
same,"viability, T/C",[17],1.53%
same,"viability, T/C",[18],1.61%
same,"viability, T/C",[19],1.59%
same,"viability, T/C",[20],1.7%
same,"viability, T/C","second compound 1 µM, first compound 0.000316 µM",1.49%
same,"viability, T/C","second compound 1 µM, first compound 0.001 µM",1.21%
same,"viability, T/C",[21],1.21%
same,"viability, T/C",[22],1.26%
same,"viability, T/C",[23],1.35%
same,"viability, T/C",[24],1.32%
CCN1CCN(Cc2ccc(Nc3ncc(F)c(-c4cc(F)c5nc(C)n(C(C)C)c5c4)n3)nc2)CC1 + CC(Nc1ccc2c(c1)OCCn1cc(N3C(=O)OCC3C(F)F)nc1-2)C(N)=O,IC50,second compound 0.00316 µM,> 1000 nM
same,IC50,second compound 0.01 µM,> 1000 nM
same,IC50,second compound 0.0316 µM,> 1000 nM
same,IC50,second compound 0.1 µM,< 3.16 nM
same,IC50,second compound 0.316 µM,< 3.16 nM
same,IC50,second compound 1 µM,< 3.16 nM
same,"viability, T/C",[1],87%
same,"viability, T/C",[2],95.7%
same,"viability, T/C",[3],108%
same,"viability, T/C",[4],106%
same,"viability, T/C","second compound 0.00316 µM, first compound 0.316 µM",120%
same,"viability, T/C","second compound 0.00316 µM, first compound 1 µM",122%
same,"viability, T/C",[5],82.5%
same,"viability, T/C",[6],77.5%
same,"viability, T/C",[7],85.9%
same,"viability, T/C",[8],84.9%
same,"viability, T/C","second compound 0.01 µM, first compound 0.316 µM",95.7%
same,"viability, T/C","second compound 0.01 µM, first compound 1 µM",109%
same,"viability, T/C",[9],58%
same,"viability, T/C",[10],57.3%
same,"viability, T/C",[11],63.9%
same,"viability, T/C",[12],64.5%
same,"viability, T/C","second compound 0.0316 µM, first compound 0.316 µM",80.8%
same,"viability, T/C","second compound 0.0316 µM, first compound 1 µM",80.1%
same,"viability, T/C",[13],40%
same,"viability, T/C",[14],38.3%
same,"viability, T/C",[15],47.2%
same,"viability, T/C",[16],48.2%
same,"viability, T/C","second compound 0.1 µM, first compound 0.316 µM",63%
same,"viability, T/C","second compound 0.1 µM, first compound 1 µM",70.2%
same,"viability, T/C",[17],27.6%
same,"viability, T/C",[18],24.9%
same,"viability, T/C",[19],33.1%
same,"viability, T/C",[20],39.4%
same,"viability, T/C","second compound 0.316 µM, first compound 0.316 µM",46.4%
same,"viability, T/C","second compound 0.316 µM, first compound 1 µM",55.6%
same,"viability, T/C",[21],23.1%
same,"viability, T/C",[22],20.7%
same,"viability, T/C",[23],26.6%
same,"viability, T/C",[24],28.5%
same,"viability, T/C","second compound 1 µM, first compound 0.316 µM",36.4%
same,"viability, T/C","second compound 1 µM, first compound 1 µM",50.1%
